Experimental data taken from patent US10941158B2, “Pyrazole ACC inhibitors and uses thereof” (Gilead Apollo, LLC, priority 2015, dated 2021).
pIC50: −log10 of the molar value. In brackets after ≈: the same amount, converted by molar mass. Where two headings read alike, the source gives them in different places.

Columns and labels:
[1] = tested on: Collectotrichum graminicola (Cg); test: Growth inhibition assay of fungal pathogens; type: cell-based; conditions: 48 h, read-out: Concentration at 90% Inhibition Cg
Method in brief: (§1)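 Compounds in DMSO tested at final 50, 10, 2 ppm or 2, 0.4, 0.08 ppm. Spores in 17% V8 medium, or 1.5 mm mycelial plugs in ¼ PDB for R. solani, incubated with compound. OD600 and visual ratings at 48 h versus 2% DMSO control gave percent growth inhibition.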

[2] = tested on: Fusarium virguliforme (Fv); test: Growth inhibition assay of fungal pathogens; type: cell-based; conditions: 48 h
Method in brief: as §1

[3] = tested on: Fusarium moniliforme (Fm); test: Growth inhibition assay of fungal pathogens; type: cell-based; conditions: for IC90: Fusarium verticillioides, 48 h, read-out: Concentration at 90% Inhibition Fm
Method in brief: as §1

Rhizoctonia solani (Rs) = test: Growth inhibition assay of fungal pathogens; type: cell-based; conditions: 48 h, read-out: Concentration at 90% Inhibition Rs
Method in brief: as §1

[4] = tested on: Phytophthora capsici (Pc); test: Growth inhibition assay of fungal pathogens; type: cell-based; conditions: for IC90: Phytophthora capsici, read-out: Concentration at 90% Inhibition Pc
Method in brief: as §1

Diplodia maydis (Dm) = test: Growth inhibition assay of fungal pathogens; type: cell-based; conditions: Stenocarpella maydis, 48 h, read-out: Concentration at 90% Inhibition Dm
Method in brief: as §1

Septoria tritici (St) = test: Growth inhibition assay of fungal pathogens; type: cell-based; conditions: for IC90: Zymoseptoria tritici, read-out: Concentration at 90% Inhibition St
Method in brief: as §1

Botrtyis cinerea (Bc) = test: Growth inhibition assay of fungal pathogens; type: cell-based; conditions: 48 h, read-out: Concentration at 90% Inhibition Bc
Method in brief: as §1

C. krusei ATCC 6258 = test: Anti-Fungal (Candida) Activity Assay, broth microtiter MIC; type: cell-based; conditions: Pichia kudriavzevii, read-out: MIC C. krusei ATCC 6258
Method in brief: (§2)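 Visual 48 h MIC endpoints are reported. Plates followed CLSI M27-A3 in RPMI 1640 plus MOPS.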

C. albicans ATCC 90028 = test: as above; type: cell-based; conditions: read-out: MIC C. albicans ATCC 90028
Method in brief: as §2

[5] = tested on: C. parapsilosis ATCC 22019; test: as above; type: cell-based; conditions: Lodderomyces parapsilosis, read-out: MIC C. parapsilosis ATCC 22019
Method in brief: as §2

human (hACC2) ACC2 = human (hACC2) ACC2 (Homo sapiens, UniProt O00763); test: In vitro Acetyl-CoA Carboxylase (ACC) inhibition assay (ADP-Glo), hACC2; type: biochemical
Protocol: The detailed procedure is as follows. […] 10 μL ADP glo reagent was added. […] 20 μL kinase detection reagent was added.
“NA” stands for “not assayed.”

fungal (fACC2) ACC2 = fungal (fACC2) ACC2 (UniProt Q00955); conditions: read-out: fACC2 IC50; fungal ACC2, ADP-Glo
Protocol: An exemplary procedure for the in vitro ACC inhibition assay, which can be used to determine the inhibitory action of compounds of the invention toward either human (hACC2) or fungal (fACC2) ACC2, follows. The ADP-Glo™ Kinase Assay kit from Promega was used. The ADP-Glo™ Kinase Assay is a luminescent ADP detection assay to measure enzymatic activity by quantifying the amount of ADP produced during an enzyme reaction. The assay is performed in two steps; first, after the enzyme reaction, an equal volume of ADP-Glo™ Reagent is added to terminate the reaction and deplete the remaining ATP. Second, the Kinase Detection Reagent is added to simultaneously convert ADP to ATP and allow the newly synthesized ATP to be measured using a luciferase/luciferin reaction. Luminescence can be correlated to ADP concentrations by using an ATP-to-ADP conversion curve. The detailed procedure is as follows. 50 μL of the compound being tested (600 μM in DMSO) was added to a 384-well dilution plate. The compound was diluted 1:3 in succession in DMSO for each row for 11 wells. 0.5 μL ACC2 working solution was added to 384-well white Optiplate assay plate. 0.5 μL diluted compound solution in each column from step 2 was added to assay plate, each row containing 2 replicates. […] The plates were incubated at room temperature for 15 minutes. 5 μL substrate working solution was added to each well to initiate reaction. Final ACC2 reaction concentrations consist of: 5 nM ACC2, 20 μM ATP, 20 μM acetyl-CoA, 12 mM NaHCO3, 0.01% Brij35, 2 mM DTT, 5% DMSO, test compound concentrations: 30 μM, 10 μM, 3.33 μM, 1.11 μM, 0.37 μM, 0.123 μM, 0.0411 μM, 0.0137 μM, 0.00457 μM, 0.00152 μM, and 0.00051 μM. Plates were incubated at room temperature for 60 minutes. 10 μL ADP glo reagent was added. Plates were incubated at room temperature for 40 minutes. 20 μL kinase detection reagent was added. Plates were incubated at room temperature for 40 minutes, and then read on a Perkin Elmer EnVision 2104 plate reader for luminescence as Relative Light Units (RLU).
Data for each concentration, as well as the positive and negative controls were averaged, and the standard deviation calculated. Percent inhibition was calculated by the formula: 100×(average negative control−compound)/(average negative control−average positive control). The IC50 for each compound was calculated by fitting the data with a non-linear regression equation: Y=Bottom+(Top-Bottom)/(1+10^((Log IC50−X)*Hill Slope)), where X is the log of compound concentration and Y is percent inhibition.
Compounds having an activity designated as “AA” provided an IC50 0.0006-0.003 μM; provided an “A” provided an IC50 0.003-0.01 μM; compounds having an activity designated as “B” provided an IC50 0.01-0.04 μM; and compounds having an activity designated as “C” provided an IC50>0.04 μM IC50. “NA” stands for “not assayed.”

[6] = read-out: Concentration at 90% Inhibition Fv, Table 4a, 48 hours
[7] = read-out: Concentration at 90% Inhibition Fv, Table 4b, 48 hours

human (hACC2) ACC2, sequence (O00763 whole entry): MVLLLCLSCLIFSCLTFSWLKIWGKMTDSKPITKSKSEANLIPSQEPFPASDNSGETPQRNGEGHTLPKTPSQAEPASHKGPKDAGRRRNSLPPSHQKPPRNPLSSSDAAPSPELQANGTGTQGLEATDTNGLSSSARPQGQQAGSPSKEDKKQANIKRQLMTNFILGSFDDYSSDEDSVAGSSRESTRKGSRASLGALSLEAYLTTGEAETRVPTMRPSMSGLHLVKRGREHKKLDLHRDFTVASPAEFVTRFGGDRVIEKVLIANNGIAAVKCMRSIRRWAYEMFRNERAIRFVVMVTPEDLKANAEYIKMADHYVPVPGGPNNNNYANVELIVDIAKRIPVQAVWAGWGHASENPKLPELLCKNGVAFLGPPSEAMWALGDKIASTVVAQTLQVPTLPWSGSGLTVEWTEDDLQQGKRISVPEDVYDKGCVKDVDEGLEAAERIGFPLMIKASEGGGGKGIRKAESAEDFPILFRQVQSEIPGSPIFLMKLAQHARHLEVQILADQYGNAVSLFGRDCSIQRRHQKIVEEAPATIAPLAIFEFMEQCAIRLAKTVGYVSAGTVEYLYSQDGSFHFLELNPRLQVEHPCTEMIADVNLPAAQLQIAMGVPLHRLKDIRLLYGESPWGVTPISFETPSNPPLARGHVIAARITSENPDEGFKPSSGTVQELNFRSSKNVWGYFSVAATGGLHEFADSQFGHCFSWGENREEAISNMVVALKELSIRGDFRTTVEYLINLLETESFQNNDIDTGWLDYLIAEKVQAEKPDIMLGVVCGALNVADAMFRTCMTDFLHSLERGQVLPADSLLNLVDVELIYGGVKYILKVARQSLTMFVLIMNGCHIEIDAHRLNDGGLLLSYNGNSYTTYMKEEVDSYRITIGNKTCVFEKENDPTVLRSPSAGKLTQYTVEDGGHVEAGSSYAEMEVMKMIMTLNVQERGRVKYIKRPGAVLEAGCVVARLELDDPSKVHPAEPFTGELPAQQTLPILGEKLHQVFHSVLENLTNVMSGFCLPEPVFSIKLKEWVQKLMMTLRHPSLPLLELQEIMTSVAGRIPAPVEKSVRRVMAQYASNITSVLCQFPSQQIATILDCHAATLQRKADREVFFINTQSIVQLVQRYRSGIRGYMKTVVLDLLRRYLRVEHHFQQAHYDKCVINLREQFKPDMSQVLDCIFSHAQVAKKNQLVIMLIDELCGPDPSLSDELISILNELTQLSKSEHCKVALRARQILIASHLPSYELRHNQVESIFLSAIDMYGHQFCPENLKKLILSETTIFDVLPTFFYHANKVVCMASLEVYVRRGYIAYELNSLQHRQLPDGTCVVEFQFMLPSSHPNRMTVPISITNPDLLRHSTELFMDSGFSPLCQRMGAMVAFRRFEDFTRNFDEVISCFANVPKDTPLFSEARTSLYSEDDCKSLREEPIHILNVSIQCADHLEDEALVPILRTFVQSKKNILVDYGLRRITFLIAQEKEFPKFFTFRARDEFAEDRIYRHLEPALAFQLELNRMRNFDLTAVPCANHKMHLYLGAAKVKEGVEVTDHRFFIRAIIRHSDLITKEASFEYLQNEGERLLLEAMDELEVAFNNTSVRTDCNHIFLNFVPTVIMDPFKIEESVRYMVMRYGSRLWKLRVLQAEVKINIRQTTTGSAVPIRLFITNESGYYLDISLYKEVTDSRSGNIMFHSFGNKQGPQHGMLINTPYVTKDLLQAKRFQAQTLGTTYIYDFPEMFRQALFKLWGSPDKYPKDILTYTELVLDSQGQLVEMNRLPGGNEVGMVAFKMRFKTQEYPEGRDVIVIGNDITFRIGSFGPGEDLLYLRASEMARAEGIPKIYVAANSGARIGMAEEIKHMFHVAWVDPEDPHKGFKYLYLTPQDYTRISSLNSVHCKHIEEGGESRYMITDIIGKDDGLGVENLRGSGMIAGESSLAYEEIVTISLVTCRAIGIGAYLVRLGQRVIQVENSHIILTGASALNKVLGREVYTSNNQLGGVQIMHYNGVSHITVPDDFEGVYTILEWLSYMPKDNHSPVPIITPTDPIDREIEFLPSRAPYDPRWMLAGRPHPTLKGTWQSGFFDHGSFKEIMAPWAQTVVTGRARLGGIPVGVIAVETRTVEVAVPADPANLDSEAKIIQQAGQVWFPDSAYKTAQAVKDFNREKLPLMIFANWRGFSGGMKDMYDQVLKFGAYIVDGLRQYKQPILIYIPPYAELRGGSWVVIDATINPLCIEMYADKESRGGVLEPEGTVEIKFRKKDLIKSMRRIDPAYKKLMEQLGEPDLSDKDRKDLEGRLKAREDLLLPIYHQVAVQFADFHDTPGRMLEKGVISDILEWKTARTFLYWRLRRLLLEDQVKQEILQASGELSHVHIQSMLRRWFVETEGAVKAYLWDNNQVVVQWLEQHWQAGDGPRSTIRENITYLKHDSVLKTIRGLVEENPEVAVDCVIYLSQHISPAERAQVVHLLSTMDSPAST
fungal (fACC2) ACC2, sequence (Q00955 whole entry): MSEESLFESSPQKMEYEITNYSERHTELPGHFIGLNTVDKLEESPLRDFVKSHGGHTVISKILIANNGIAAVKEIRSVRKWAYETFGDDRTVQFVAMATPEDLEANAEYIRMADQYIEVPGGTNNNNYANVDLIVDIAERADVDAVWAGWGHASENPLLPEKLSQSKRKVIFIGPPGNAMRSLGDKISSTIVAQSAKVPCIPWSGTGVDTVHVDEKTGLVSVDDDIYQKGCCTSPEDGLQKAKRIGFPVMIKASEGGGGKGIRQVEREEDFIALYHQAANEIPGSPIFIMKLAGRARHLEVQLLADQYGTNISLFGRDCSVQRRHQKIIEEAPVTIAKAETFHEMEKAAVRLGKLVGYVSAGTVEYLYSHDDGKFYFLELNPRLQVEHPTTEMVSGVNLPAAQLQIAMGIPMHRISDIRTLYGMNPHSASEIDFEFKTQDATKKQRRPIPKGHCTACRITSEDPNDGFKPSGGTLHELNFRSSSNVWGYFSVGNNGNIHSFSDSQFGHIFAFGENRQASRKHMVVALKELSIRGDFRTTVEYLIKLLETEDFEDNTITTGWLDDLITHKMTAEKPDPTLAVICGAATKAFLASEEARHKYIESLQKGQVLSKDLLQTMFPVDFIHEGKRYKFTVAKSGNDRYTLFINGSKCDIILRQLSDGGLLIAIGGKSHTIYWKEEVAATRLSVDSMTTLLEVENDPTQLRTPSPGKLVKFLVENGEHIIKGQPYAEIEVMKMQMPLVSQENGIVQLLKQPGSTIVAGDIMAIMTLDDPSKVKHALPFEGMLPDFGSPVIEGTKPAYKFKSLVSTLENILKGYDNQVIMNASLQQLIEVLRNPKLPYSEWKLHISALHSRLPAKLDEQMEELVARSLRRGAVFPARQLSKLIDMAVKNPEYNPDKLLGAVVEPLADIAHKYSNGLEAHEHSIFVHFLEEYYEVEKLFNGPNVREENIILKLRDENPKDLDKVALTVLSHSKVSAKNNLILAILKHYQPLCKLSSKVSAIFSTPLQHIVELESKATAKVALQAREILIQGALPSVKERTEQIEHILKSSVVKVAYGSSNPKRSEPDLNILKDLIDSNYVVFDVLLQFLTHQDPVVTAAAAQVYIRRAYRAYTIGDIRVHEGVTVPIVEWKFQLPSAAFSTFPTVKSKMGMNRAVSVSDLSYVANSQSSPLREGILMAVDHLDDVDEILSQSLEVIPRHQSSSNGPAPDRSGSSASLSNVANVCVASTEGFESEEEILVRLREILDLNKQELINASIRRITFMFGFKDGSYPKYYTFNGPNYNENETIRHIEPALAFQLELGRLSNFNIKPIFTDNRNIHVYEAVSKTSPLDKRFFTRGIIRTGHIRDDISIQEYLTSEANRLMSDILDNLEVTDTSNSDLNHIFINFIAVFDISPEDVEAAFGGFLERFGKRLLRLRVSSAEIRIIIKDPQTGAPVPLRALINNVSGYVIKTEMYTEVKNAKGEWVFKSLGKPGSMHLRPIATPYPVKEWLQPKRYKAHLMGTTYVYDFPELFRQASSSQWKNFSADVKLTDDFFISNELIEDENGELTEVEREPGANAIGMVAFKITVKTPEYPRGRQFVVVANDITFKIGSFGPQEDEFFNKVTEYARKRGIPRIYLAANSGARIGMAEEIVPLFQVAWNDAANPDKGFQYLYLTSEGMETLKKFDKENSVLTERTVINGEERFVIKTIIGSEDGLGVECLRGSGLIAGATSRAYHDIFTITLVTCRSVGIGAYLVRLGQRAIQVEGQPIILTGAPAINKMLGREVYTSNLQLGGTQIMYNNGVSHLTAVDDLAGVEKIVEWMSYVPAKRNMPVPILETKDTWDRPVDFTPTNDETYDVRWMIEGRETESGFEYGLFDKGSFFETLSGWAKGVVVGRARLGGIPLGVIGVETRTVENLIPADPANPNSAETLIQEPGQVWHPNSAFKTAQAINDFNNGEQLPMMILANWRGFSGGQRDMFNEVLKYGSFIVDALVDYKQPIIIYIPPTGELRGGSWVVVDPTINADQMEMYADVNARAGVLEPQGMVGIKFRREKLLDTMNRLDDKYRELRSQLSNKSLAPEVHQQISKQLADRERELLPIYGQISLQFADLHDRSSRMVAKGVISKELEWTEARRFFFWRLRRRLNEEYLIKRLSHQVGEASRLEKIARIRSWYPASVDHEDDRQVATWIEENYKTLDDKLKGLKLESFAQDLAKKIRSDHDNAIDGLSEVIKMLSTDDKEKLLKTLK

COc1ccc(F)cc1[C@H](Cn1c(=O)n(C(C)(C)C(=O)NC(C)C)c(=O)c2c(C)c(-n3cccn3)sc21)OC[C@H](C)O [Compound I-38, 2-(1-((R)-2-(5-fluoro-2-methoxyphenyl)-2-((S)-2-hydroxy-propoxy)ethyl)-5-methyl-2,4-dioxo-6-(1H-pyrazol-1-yl)-1,4-dihydrothieno[2,3-d]pyrimidin-3(2H)-yl)-N-isopropyl-2-methylpropanamide]
IC90 ([1]; Table 4a): > 50 µg/mL
IC90 ([1]; Table 4b): 10 µg/mL (≈ 16.6 µM)
IC90 [2, 6]: 2 µg/mL (≈ 3.32 µM)
IC90 [2, 7]: 2 µg/mL (≈ 3.32 µM)
IC90 [3]: 0.4 µg/mL (≈ 0.665 µM)
Concentration at 90% Inhibition Fm ([3]; Table 4b, 48 hours): A (“A” provided a compound concentration of 0.4 ppm at 90% inhibition of fungal pathogens)
IC90 (Rhizoctonia solani (Rs); Table 4a): 10 µg/mL (≈ 16.6 µM)
IC90 (Rhizoctonia solani (Rs); Table 4b): 2 µg/mL (≈ 3.32 µM)
IC90 ([4]; 48 h, Table 4a): > 50 µg/mL
IC90 ([4]; 48 h, Table 4b): > 50 µg/mL
IC90 (Diplodia maydis (Dm); Table 4a): > 50 µg/mL
IC90 (Diplodia maydis (Dm); Table 4b): 10 µg/mL (≈ 16.6 µM)
IC90 (Septoria tritici (St); 48 h, Table 4a): > 50 µg/mL
IC90 (Septoria tritici (St); 48 h, Table 4b): > 50 µg/mL
IC90 (Botrtyis cinerea (Bc); Table 4a): 2 µg/mL (≈ 3.32 µM)
IC90 (Botrtyis cinerea (Bc); Table 4b): 2 µg/mL (≈ 3.32 µM)
MIC (C. krusei ATCC 6258; ATCC6258, 48 h): 2.1 to 4 µg/mL (≈ 3.49 to 6.65 µM)
MIC (C. albicans ATCC 90028; ATCC90028, 48 h): > 4.1 µg/mL
MIC ([5]; ATCC22019, 48 h): > 4.1 µg/mL
pIC50 (human (hACC2) ACC2): 7.40 to 8.00
pIC50 (fungal (fACC2) ACC2): 8.52 to 9.22

COc1ccc(F)cc1[C@H](Cn1c(=O)n(C(C)(C)C(=O)NC(C)C)c(=O)c2c(C)c(-n3cccn3)sc21)OC[C@@H](C)O [Compound I-39, 2-(1-((R)-2-(5-fluoro-2-methoxyphenyl)-2-((R)-2-hydroxy-propoxy)ethyl)-5-methyl-2,4-dioxo-6-(1H-pyrazol-1-yl)-1,4-dihydrothieno[2,3-d]pyrimidin-3(2H)-yl)-N-isopropyl-2-methylpropanamide]
IC90 ([1]; Table 4a): 0.4 µg/mL (≈ 0.665 µM)
IC90 ([1]; Table 4b): 0.4 µg/mL (≈ 0.665 µM)
IC90 [2, 6]: > 50 µg/mL
IC90 [2, 7]: 2 µg/mL (≈ 3.32 µM)
IC90 [3]: 0.4 µg/mL (≈ 0.665 µM)
Concentration at 90% Inhibition Fm ([3]; Table 4b, 48 hours): A (“A” provided a compound concentration of 0.4 ppm at 90% inhibition of fungal pathogens)
IC90 (Rhizoctonia solani (Rs); Table 4a): 0.4 µg/mL (≈ 0.665 µM)
IC90 (Rhizoctonia solani (Rs); Table 4b): 0.4 µg/mL (≈ 0.665 µM)
IC90 ([4]; 48 h, Table 4a): > 50 µg/mL
IC90 ([4]; 48 h, Table 4b): 10 µg/mL (≈ 16.6 µM)
IC90 (Diplodia maydis (Dm); Table 4a): 10 µg/mL (≈ 16.6 µM)
IC90 (Diplodia maydis (Dm); Table 4b): 2 µg/mL (≈ 3.32 µM)
IC90 (Septoria tritici (St); 48 h, Table 4a): > 50 µg/mL
IC90 (Septoria tritici (St); 48 h, Table 4b): 10 µg/mL (≈ 16.6 µM)
IC90 (Botrtyis cinerea (Bc); Table 4a): 2 µg/mL (≈ 3.32 µM)
IC90 (Botrtyis cinerea (Bc); Table 4b): 2 µg/mL (≈ 3.32 µM)
MIC (C. krusei ATCC 6258; ATCC6258, 48 h): 2.1 to 4 µg/mL (≈ 3.49 to 6.65 µM)
MIC (C. albicans ATCC 90028; ATCC90028, 48 h): > 4.1 µg/mL
MIC ([5]; ATCC22019, 48 h): > 4.1 µg/mL
pIC50 (human (hACC2) ACC2): 8.00 to 8.52
pIC50 (fungal (fACC2) ACC2): 8.52 to 9.22

COc1ccc(F)cc1[C@H](Cn1c(=O)n(C(C)(C)C(=O)N2CCCC2)c(=O)c2c(C)c(-n3cccn3)sc21)OC[C@H](C)O [Compound I-40, 1-((R)-2-(5-fluoro-2-methoxyphenyl)-2-((S)-2-hydroxy-propoxy)ethyl)-5-methyl-3-(2-methyl-1-oxo-1-(pyrrolidin-1-yl)propan-2-yl)-6-(1H-pyrazol-1-yl)thieno[2,3-d]pyrimidine-2,4(1H,3H)-dione]
IC90 ([1]; Table 4a): > 50 µg/mL
IC90 ([1]; Table 4b): 10 µg/mL (≈ 16.3 µM)
IC90 ([2]; Table 4a, 48 hours, read-out: Concentration at 90% Inhibition Fv): > 50 µg/mL
IC90 ([2]; Table 4b, 48 hours, read-out: Concentration at 90% Inhibition Fv): 10 µg/mL (≈ 16.3 µM)
IC90 ([3]; Table 4a, 48 hours): 2 µg/mL (≈ 3.26 µM)
IC90 ([3]; Table 4b, 48 hours): 2 µg/mL (≈ 3.26 µM)
IC90 (Rhizoctonia solani (Rs); Table 4a): 10 µg/mL (≈ 16.3 µM)
IC90 (Rhizoctonia solani (Rs); Table 4b): 2 µg/mL (≈ 3.26 µM)
IC90 ([4]; Table 4a, 48 hours): > 50 µg/mL
Concentration at 90% Inhibition Pc ([4]; Table 4b, 48 hours): D (“D” provided a compound concentration of >50 ppm at 90% inhibition of fungal pathogens)
IC90 (Diplodia maydis (Dm); Table 4a): > 50 µg/mL
IC90 (Diplodia maydis (Dm); Table 4b): > 50 µg/mL
Concentration at 90% Inhibition St (Septoria tritici (St); Table 4b, 48 hours): D (“D” provided a compound concentration of >50 ppm at 90% inhibition of fungal pathogens)
IC90 (Septoria tritici (St); Table 4a, 48 hours): > 50 µg/mL
IC90 (Botrtyis cinerea (Bc); Table 4a): > 50 µg/mL
IC90 (Botrtyis cinerea (Bc); Table 4b): 10 µg/mL (≈ 16.3 µM)
MIC (C. krusei ATCC 6258; ATCC6258, 3 replicates, MIC recorded at 48 h): 0.25 to 1 µg/mL (≈ 0.407 to 1.63 µM)
MIC (C. albicans ATCC 90028; ATCC90028, 3 replicates, MIC recorded at 48 h): > 4.1 µg/mL
MIC ([5]; ATCC22019, 3 replicates, MIC recorded at 48 h): 2.1 to 4 µg/mL (≈ 3.42 to 6.52 µM)
pIC50 (human (hACC2) ACC2): 7.40 to 8.00
pIC50 (fungal (fACC2) ACC2): 8.52 to 9.22
